The values that follow come from patent US6420353B1, “Use of 7 α-substituted steroid to treat neuropsychiatric, immune or endocrine disorders” (BTG International Limited, priority 1996, dated 2002).

Series [1] deals with T1, Cyp7b (Mus musculus, UniProt Q60991).
T1 sequence (Q60991 1-507): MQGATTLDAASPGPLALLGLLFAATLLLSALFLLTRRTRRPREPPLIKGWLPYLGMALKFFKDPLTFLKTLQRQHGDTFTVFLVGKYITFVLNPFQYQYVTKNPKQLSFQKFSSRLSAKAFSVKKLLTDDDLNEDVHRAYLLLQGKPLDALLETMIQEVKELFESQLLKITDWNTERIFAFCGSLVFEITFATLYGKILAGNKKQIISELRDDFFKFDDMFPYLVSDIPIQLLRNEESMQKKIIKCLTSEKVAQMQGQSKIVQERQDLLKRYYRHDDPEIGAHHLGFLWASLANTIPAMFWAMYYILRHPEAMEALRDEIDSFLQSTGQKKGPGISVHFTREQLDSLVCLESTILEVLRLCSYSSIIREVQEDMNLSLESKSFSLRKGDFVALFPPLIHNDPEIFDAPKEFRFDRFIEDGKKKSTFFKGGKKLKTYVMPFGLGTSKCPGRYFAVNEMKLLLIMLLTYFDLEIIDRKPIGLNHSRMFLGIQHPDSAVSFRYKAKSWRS
Description: Catalytic activity of Cyp7b expressed in mammalian cell lines (NADPH-dependent conversion, TLC). The text has this:
To examine the catalytic activity of the enzyme Cyp7b CDNAs were expressed in mammalian cell lines.

The target of the next series is T2, GR (Homo sapiens, UniProt P04150).
T2 construct: expressed in transfected cells; host or cells: CHO cells, calcium phosphate transfection
T2 sequence (P04150 1-777): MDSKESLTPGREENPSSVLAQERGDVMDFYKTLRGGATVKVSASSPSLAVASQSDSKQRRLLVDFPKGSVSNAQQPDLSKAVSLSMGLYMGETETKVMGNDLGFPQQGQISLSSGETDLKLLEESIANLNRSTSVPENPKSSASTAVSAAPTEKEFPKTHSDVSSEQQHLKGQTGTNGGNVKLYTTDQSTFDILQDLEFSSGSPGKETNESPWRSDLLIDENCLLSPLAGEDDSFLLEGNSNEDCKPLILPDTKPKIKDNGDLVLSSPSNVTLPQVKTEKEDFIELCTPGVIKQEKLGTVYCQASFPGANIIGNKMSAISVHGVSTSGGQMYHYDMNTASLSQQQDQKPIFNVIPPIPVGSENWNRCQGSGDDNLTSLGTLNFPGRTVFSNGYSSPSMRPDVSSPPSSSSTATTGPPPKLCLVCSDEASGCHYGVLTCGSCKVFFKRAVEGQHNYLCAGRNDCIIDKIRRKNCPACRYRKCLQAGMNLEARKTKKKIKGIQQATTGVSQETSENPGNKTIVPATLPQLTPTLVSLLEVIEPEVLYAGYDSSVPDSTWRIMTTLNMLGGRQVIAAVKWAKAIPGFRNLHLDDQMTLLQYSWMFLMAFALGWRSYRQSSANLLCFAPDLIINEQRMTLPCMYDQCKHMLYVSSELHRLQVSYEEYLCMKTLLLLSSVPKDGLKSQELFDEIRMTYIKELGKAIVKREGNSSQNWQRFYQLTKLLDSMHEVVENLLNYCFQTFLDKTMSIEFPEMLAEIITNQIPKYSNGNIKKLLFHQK
In words: Cis-trans co-transfection assay (MMTV-LUC / pRShGR) in CHO cells. It is filed as cell-based. Particulars: in presence of a GR activating concentration of corticosterone, FIG. 4. Here is the method: Chinese hamster ovary (CHO) cells were maintained and transfected in Dulbecco's modification of Eagle's medium (DMEM) supplemented with 15% foetal bovine serum, 100 IU/ml penicillin, 100 μg/ml streptomycin and […] L-glutamine (all Gibco BRL, Paisley, UK).
24 hours prior to transfection CHO cells were plated at a density of 3×10^5/60 mm dish (Costar UK). Cells were transfected by the clacium phosphate method. Briefly, 5 μg of MMTV-LUC and 1 μg of pRShGR or 5 μg of pSV2 as a control for transfection efficiency were made up to a total of 10 μg/plate of DNA with pGEM3. 30 μl of 2.5M CaCl2 was diluted ten-fold with sterile water and 300 μl was added to the DNA. […]
The following day the cells were washed in PBS, lysed with 0.3 ml of lysis buffer (25 mM Tris-phosphate pH 7.8, 2 mM DTT, 1% Triton X-100 and 10% glycerol), scraped, centrifuged and the supernatant assayed in duplicate in a Berthold luminometer in a total volume of 250 μl, comprising 40 μl of cell extract, 5 μl of 30 mM ATP, 100 μl of assay buffer (20 mM tricine, […] (MgCO3)4.Mg(OH)2.%H2O, 2.67 mM MgSO4, Q1 mM EDTA, 33.3 mM DTT, 0.2 mg/ml coenzyme A) and 105 μl luciferin (Promega UK) injected to initiate the reaction. Light emission was measured over 10 seconds and relative light units/microgram of protein was calculated.

Series [2] has as its target T1, Cyp7b.
Series [3] addresses T1, Cyp7b. This is another data set of the same source.
Substrate in series [4]: C[C@]12CC[C@H](O)CC1=CC[C@@H]1[C@@H]2CC[C@]2(C)C(=O)CC[C@@H]12
Description: purified protein, by the assay type. Particulars: other: cell extracts, NADPH-dependent conversion.

[5] abbreviates: relative to DHEA and pregnenolone.
[6] abbreviates: cell extracts, NADPH-dependent conversion.

Where two headings read alike, the source gives them in different places.

Turning to `C[C@]12CC[C@H](O)C[C@@H]1CC[C@@H]1[C@@H]2CC[C@]2(C)[C@@H](O)CC[C@@H]12` [5α-androstane-3β, 17β-diol], on Cyp7b [1] (setting [5]), the “activity of the expressed enzyme against the steroid as substrate” value (from here on “activity of the expressed enzyme”) is on record as “less active”.

Take `C[C@]12CC[C@H](O)CC1=C[C@@H](O)[C@@H]1[C@@H]2CC[C@]2(C)C(=O)CC[C@@H]12` [7HD, 7α-hydroxydehydroepi-androsterone]: the “antagonism of corticosterone effect in activating GR-mediated transcription (fold induction of luciferase)” value at GR is “acts as an antagonist”.

Regarding `C[C@H](CCCC(C)(C)O)[C@H]1CC[C@H]2[C@@H]3CC=C4C[C@@H](O)CC[C@]4(C)[C@H]3CC[C@]12C` [25-hydroxycholesterol], on Cyp7b [1], the “activity of the expressed enzyme” value is “less active”. For the same molecule, the “conversion of labelled steroid by Cyp7b microsomes to a lower mobility form on TLC” value (shortened to “conversion … to a lower mobility form on TLC”) at Cyp7b [2] is reported as “converted by the enzymes”.

For the molecule `C[C@]12CC[C@H](O)CC1=CC[C@@H]1[C@@H]2CC[C@]2(C)C(=O)CC[C@@H]12` [DHEA, dehydroepiandrosterone], the “conversion … to a lower mobility form on TLC” value at Cyp7b [2] was “converted”. Moreover, the “antagonism of corticosterone effect in activating GR-mediated transcription (fold induction of luciferase)” value on GR is recorded as “not”.

For `C[C@]12C[C@H](O)[C@H]3[C@@H](CCC4=CC(=O)CC[C@@]43C)[C@@H]1CC[C@@H]2C(=O)CO` [corticosterone], on Cyp7b [1], the “activity of the expressed enzyme” value was “low to undetectable activity”. Also, on Cyp7b [2], the “conversion … to a lower mobility form on TLC” value is recorded as “at best inefficiently metabolised, if at all”.

With `C[C@]12CCC(=O)C=C1CC[C@@H]1[C@@H]2[C@@H](O)C[C@@]2(C)[C@H]1CC[C@]2(O)C(=O)CO` [cortisol], at Cyp7b [2], the “conversion … to a lower mobility form on TLC” value is listed as “at best inefficiently metabolised, if at all”.

As to `C[C@]12CC[C@@H]3c4ccc(O)cc4CC[C@H]3[C@@H]1CC[C@@H]2O` [estradiol, 17β-estradiol], the “activity of the expressed enzyme” value at Cyp7b [1] is “less active”. In addition, the “conversion … to a lower mobility form on TLC” value on Cyp7b [2] is “converted by the enzymes”.

Usually Km stands for the substrate concentration at which the rate is half of its maximum. Broadly, the Vmax is the top rate of the reaction or transport when substrate is in excess. For `CC(=O)[C@H]1CC[C@H]2[C@@H]3CC=C4C[C@@H](O)CC[C@]4(C)[C@H]3CC[C@]12C` [pregnenolone], the “release of 3H into the aqueous phase” value at Cyp7b [3] is “efficiently released”. In addition, on Cyp7b [1] (setting [6]), the Km was 3.6 µM and the Vmax is recorded as 34 pmol/min/mg. Besides, the “conversion … to a lower mobility form on TLC” value at Cyp7b [2] was “converted by the enzymes”.

In the case of `CC(=O)[C@H]1CC[C@H]2[C@@H]3CCC4=CC(=O)CC[C@]4(C)[C@H]3CC[C@]12C` [progesterone], at Cyp7b [2], the “conversion … to a lower mobility form on TLC” value is listed as “at best inefficiently metabolised, if at all”.

In the case of `C[C@]12CC[C@H]3[C@@H](CCC4=CC(=O)CC[C@@]43C)[C@@H]1CC[C@@H]2O` [testosterone], the “activity of the expressed enzyme” value on Cyp7b [1] (setting [5]) is on record as “low to undetectable activity”. Further, the “conversion … to a lower mobility form on TLC” value at Cyp7b [2] is on record as “at best inefficiently metabolised, if at all”.

B1: Cyp7b (Mus musculus) (protein)
chain: T1 sequence (Q60991 1-507)
For the molecule B1, in series [4], the Km was found to be 13.3 µM and the Vmax was 288 pmol/min/mg.
